Measured values as given in paper PMC3877196 (Toxicon : official journal of the International Society on …, 2013).
*1 amine or outer side, *2 acyl side, *3 side chain or, on linkers, in order; H or OH if unused. Where a SMILES comes first, the peptide text is derived from it. CO = O=C([*:1])[*:2]

Target: T1, IXOSP (Ixodes scapularis salivary serine protease) (Ixodes scapularis, UniProt Q4PMM2)
T1 sequence (Q4PMM2 51-273): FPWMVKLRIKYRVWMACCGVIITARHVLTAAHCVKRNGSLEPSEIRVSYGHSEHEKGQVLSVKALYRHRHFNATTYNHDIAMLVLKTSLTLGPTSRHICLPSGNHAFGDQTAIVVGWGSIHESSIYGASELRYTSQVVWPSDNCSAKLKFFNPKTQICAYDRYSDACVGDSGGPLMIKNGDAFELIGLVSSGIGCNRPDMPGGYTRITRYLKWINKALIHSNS
Assay: amidolytic assay, pNA release at […] nm
Assay type: biochemical
Details: read-out: Inhibition of activity (% ± SD)

CC(C)[C@H](NC(=O)[C@H](CCCNC(=N)N)NC(=O)N[C@@H](Cc1ccccc1)C(=O)O)C(=O)N[C@H](C=O)CCCNC(=N)N [Antipain] ({Phe-CO}-Arg-Val-Arg-aldehyde)
inhibition at 30 µM: 55 ± 4%
